Data as given in PMC4964015 (Annals of Clinical Microbiology and Antimicrobials, 2016).
Peptide text beside a SMILES is read from it.

Tests used:
[1] = system: S. meliloti cells; assay: Membrane potential, DiOC2(3) red/green fluorescence (BacLight kit); type: cell-based, Sinorhizobium meliloti; conditions: BacLight Bacterial Membrane Potential Kit
Source text: For the measurements, the BacLight™ Bacterial Membrane Potential Kit (Thermo Fisher Scientific) was used according to the instructions of the manufacturer.

[2] = system: rhizobia (Sinorhizobium meliloti); assay: Killing assay in phosphate buffer (number of living cells); type: cell-based; conditions: 50 µg/ml peptide in phosphate buffer for three hours
Description: (§1) In this study, we investigated how NCR247 and NCR335 affect the cell surface as well as the outer and inner membranes (OM and IM respectively) of the α-Proteobacterium S. meliloti, the natural target of the peptides. We compared the effect of these NCR peptides to that of Polymyxin B (PMB), which alters bacterial outer membrane permeability and then disrupts the cytoplasmic membrane of gram-negative bacteria. […] NCR247 and NCR335 inhibited the growth of rhizobia at 25 and 12 µg/ml (Minimal Inhibitory Concentration), respectively, in broth microdilution assays, and were able to decrease the number of living cells by two and four orders of magnitude, respectively, when they were used at 50 µg/ml concentration in phosphate buffer for three hours. In other—including clinically relevant—bacteria, the minimal bactericid concentration of the peptides varied between 20 and 125 µg/ml (Additional file 1). […] Prolonging the treatment for 3 h caused no further changes, cells treated for 1 and 3 h were alike. These observations were in line with reported surface corrugation of the E. coli cell envelope by NCR247 [18]. Similar study on the NCR335 treated S. meliloti cultures could not be performed as the bacteria lost their attachment to the poly-L-lysine coated muscovite mica surface.

[3] = system: S. meliloti outer membrane; assay: Outer membrane permeability, NPN fluorescence; type: cell-based, Sinorhizobium meliloti; conditions: for outer membrane permeabilization (NPN fluorescence): peptides tested at 50, 25, 12.5 and 6.25 µg/ml, 5 mM HEPES pH 7.2, 50 µg/ml = NCR335 6.4 µM, NCR247 16.6 µM, NCR001 9.5 µM, PMB 36 µM
Description: The cells from exponentially growing cultures were collected, washed and suspended in 5 mM HEPES buffer (pH=7.2). 80 µl NPN of 25 µM concentration and 100 µl of bacterial suspension (OD600=0.1) were pipetted into the wells of a black 96-well microtiter plate and the fluorescence were measured for 3 cycles (9 seconds/cycle) in a FLUOstar OPTIMA plate-reader (BMG Labtech). After the three cycles, 20 µl of peptide was added and the fluorescence were measured for an additional 18 cycles.

[4] = system: S. meliloti cells; assay: Atomic force microscopy of immobilized cells; type: cell-based, Sinorhizobium meliloti
Source text: Details of the measurements and sample preparations are described in Reference 18.
Nagy K, Mikulass KR, Vegh AG, Kereszt A, Kondorosi E, Varo G, Szegletes Z: Interaction of cysteine-rich cationic antimicrobial peptides with intact bacteria and model membranes. Gen Physiol Biophys 2015, 34(2):135-144

[5] = system: gram-negative and gram-positive bacteria; conditions: cited from earlier work
Source text: (§2) Extremely rich sources of AMPs are the plants where up to several hundreds of peptide-coding genes can be expressed in specific organs constitutively or induced locally or systematically by the attack of pathogenic microbes. […] In Medicago truncatula nodule cells infected with Sinorhizobium meliloti, hundreds ...

[6] = system: Escherichia coli cells; conditions: cited from earlier work
Source text: as §2

[7] = system: fungi; conditions: cited from earlier work
Source text: as §2

[8] = system: Staphylococcus aureus; assay: Minimal bactericid concentration (MBC); type: cell-based
[9] = system: Listeria monocytogenes; assay: Minimal bactericid concentration (MBC); type: cell-based
[10] = system: Sinorhizobium meliloti AK631; assay: Minimal bactericid concentration (MBC); type: cell-based
[11] = system: rhizobia (Sinorhizobium meliloti); assay: Broth microdilution assay (Minimal Inhibitory Concentration); type: cell-based; conditions: growth inhibition of rhizobia
Description: as §1

[12] = system: Escherichia coli K12; assay: Minimal bactericid concentration (MBC); type: cell-based
[13] = system: Salmonella typhimurium; assay: Minimal bactericid concentration (MBC); type: cell-based
[14] = system: Pseudomonas aeruginosa; assay: Minimal bactericid concentration (MBC); type: cell-based
[15] = system: Lactobacillus plantarum; assay: Minimal bactericid concentration (MBC); type: cell-based

| Compound | effect on membrane potential (DiOC2(3) red/green fluorescence ratio) [1] | decrease of the number of living cells [2] | outer membrane damage (NPN fluorescence) ([3]; 25 µg/ml, compared with 50 µg/ml) | outer membrane damage (NPN fluorescence) ([3]; 50 µg/ml) | outer membrane damage (NPN fluorescence) ([3]; concentrations lower than 25 µg/ml) | average height of bacteria (AFM) ([4]; 25 µg/ml, average height ~600 nm) | cell surface roughness / surface alterations (AFM) ([4]; treatment for 1 h, 3 h caused no further changes) | antimicrobial activity against gram-negative and gram-positive bacteria [5] | surface roughness of treated Escherichia coli cells (AFM) [6] | antimicrobial activity against fungi [7] | MBC [8] | MBC [9] | outer membrane permeabilization (NPN fluorescence) [3] | MBC [10] | Minimal Inhibitory Concentration [11] | MBC [12] | MBC [13] | MBC [14] | MBC [15] |
| --- | --- | --- | --- | --- | --- | --- | --- | --- | --- | --- | --- | --- | --- | --- | --- | --- | --- | --- | --- |
| N#CC(C#N)=NNc1cccc(Cl)c1 [CCCP, carbonyl cyanide m-chlorophenyl hydrazone, reference compound] | loss of membrane potential | – | – | – | – | – | – | – | – | – | – | – | – | – | – | – | – | – | – |
| CC[C@H](C)[C@H](NC(=O)[C@H](CS)NC(=O)CNC(=O)[C@H](CC(N)=O)NC(=O)[C@@H](N)CCCNC(=N)N)C(=O)N[C@H](C(=O)N[C@@H](CC(=O)O)C(=O)N1CCC[C@H]1C(=O)N[C@@H](CCCNC(=N)N)C(=O)N[C@@H](CS)C(=O)N1CCC[C@H]1C(=O)N[C@@H](Cc1ccc(O)cc1)C(=O)N[C@@H](CCC(N)=O)C(=O)N[C@@H](CCC(N)=O)C(=O)N[C@@H](CS)C(=O)N[C@@H](CCCNC(=N)N)C(=O)N[C@@H](CCCNC(=N)N)C(=O)N1CCC[C@H]1C(=O)N[C@@H](CC(C)C)C(=O)N[C@@H](Cc1ccc(O)cc1)C(=O)N[C@@H](CS)C(=O)N[C@@H](CCCNC(=N)N)C(=O)N[C@@H](CCCNC(=N)N)C(=O)N[C@@H](CCCNC(=N)N)C(=O)O)C(C)C [NCR247] (H-RNGCIVDPRCPYQQCRRPLYCRRR-OH; C-terminus assumed) | loss of membrane potential | two | even weaker | only a mild damage | no effect | no change in the average height | increased the surface roughness | effective | increased surface roughness | effective | – | – | – | – | – | – | – | – | – |
| H-RLNTTFRPLNFKMLRFWGQNRNIMKHRGQKVHFSLILSDCKTNKDCPKLRRANVRCRKSYCVPI [NCR335, cationic nodule-specific cysteine-rich peptide of Medicago truncatula, chemically synthetized, pI 11.22] | loss of membrane potential | four | – | – | – | – | – | effective | increased surface roughness | effective | 30 µg/mL | 20 µg/mL | equally efficient at 50, 25 and 12.5 µg/ml but provoked a weaker OM permeabilization than PMB | 50 µg/mL | 12 µg/mL | 50 µg/mL | 50 µg/mL | 70 µg/mL | 30 µg/mL |
| Polymyxin B [PMB, reference compound] | loss of membrane potential | – | – | – | – | – | – | – | – | – | – | – | most pronounced effect | – | – | – | – | – | – |
